Source: US20260337212A1, “IP4-4,6 SUBSTITUTED DERIVATIVE COMPOUNDS FOR USE IN THE TREATMENT, INHIBITION OF PROGRESSION, AND PREVENTION OF ECTOPIC CALCIFICATION” (SANIFIT THERAPEUTICS, S.A., priority 2022, published 2026)

Experiments:
[1] = Rat vitamin D3 model: blood perfusion of posterior limbs by laser doppler perfusion imaging; format: in vivo, Sprague Dawley rat; conditions: FIG. 13
Protocol: Statistical analysis: One-way ANOVA with Fisher's LSD test for post-hoc comparisons. The result of the ANOVA was p<0.0001. (#) indicates significant differences vs sham, (*) indicates significant differences vs vehicle, (§) indicates significant differences vs Compound 27 5 mg/kg (only applies to other Compound 27 doses), p<0.05. N=10-12 animals/group.
The model evaluated the effects of Compound 27 on tissue calcification, blood perfusion, and walking ability in rats for a duration of 13 days. Tissue calcification was induced in groups 2-5 from D1 to D3. Animals induced with calcification were administered placebo or active agent formulations from D1 onwards to assess their effects in preventing calcification. The impact of treatment on tissue calcification, blood perfusion, and walking ability was evaluated. Observations were taken at several points during the treatment from D0 to D13. All animals were weighed every day before treatment. […]
Blood perfusion (BP) was evaluated by laser doppler perfusion imaging applied to the posterior limbs of the animals using a PeriCam PSI Normal Resolution analyzer (Perimed A B, Järfälla, S E). […] The perfusion ratio (i.e., mean of the two legs) was calculated by comparing the baseline and either D4 or D13 readings for each group. In addition, the perfusion ratio was calculated by comparing group 1 and groups 2-5.

[2] = Rat vitamin D3 model: tissue calcium content (ICP-OES); format: in vivo, Sprague Dawley rat; conditions: 5, 15, 45 mg/kg s.c. daily D1-D13
Protocol: FIG. 12 represents the mean calcium content (±SD) in Sham rats (no VitD3 treatment) and rats treated with vehicle or Compound 27 (5, 15, and 45 mg/kg) in (A) aorta, (B) heart, (C) femoral artery, (D) carotid arteries, and (E) kidney. For femoral and carotid arteries, the mean of the calcium content in left and right vessels was used. Statistical analysis: One-way ANOVA with Fisher's LSD test for post-hoc comparisons. (#) indicates significant differences vs. sham, (*) indicates significant differences vs vehicle, (§) indicates significant differences vs Compound 27 5 mg/kg (only applies to other Compound 27 doses), (¥) indicates significant differences vs Compound 27 15 mg/kg (only applies to Compound 27 45 mg/kg), p<0.05. N=7-12 animals/group.
The model evaluated the effects of Compound 27 on tissue calcification, blood perfusion, and walking ability in rats for a duration of 13 days. Tissue calcification was induced in groups 2-5 from D1 to D3. Animals induced with calcification were administered placebo or active agent formulations from D1 onwards to assess their effects in preventing calcification. The impact of treatment on tissue calcification, blood perfusion, and walking ability was evaluated. Observations were taken at several points during the treatment from D0 to D13. All animals were weighed every day before treatment.
Fifty-eight male Sprague Dawley (SD) rats (Envigo Corp., Huntingdon, GB) weighing approximately 275-300 g were used. The animals were fed with a standard LASQCdiet® Rod14-H4 diet (LASvendi, Soest, DE). The animals were divided in 5 groups, 10 to 12 animals per group, as follows: • Group 1—Control (sham), 10 animals • Group 2—Physiological saline solution (placebo) daily, 12 animals • Group 3—Compound 27, 5 mg/kg daily, 12 animals • Group 4—Compound 27, 15 mg/kg daily, 12 animals • Group 5—Compound 27, 45 mg/kg daily, 12 animals
Calcification was induced in the animals of groups 2-5 by subcutaneous administration of 120,000 IU/kg vitamin D3 (cholecalciferol, Duphafral D3 1000; Zoetis Inc., Parsippany, NJ, US) in physiological saline 0.9% (w/v) NaCl solution (2 mL/kg) daily from D1 to D3. Animals in group 1 were administered 2 mL/kg of physiological saline solution daily from D1 to D3 via subcutaneous route with no vitamin D3. Animals in group 2 were administered 2 mL/kg of physiological saline solution daily from D1 to D13 via subcutaneous route. Animals in groups 3, 4, and 5 were administered 5 mg/kg, 15 mg/kg, and 45 mg/kg, respectively, of Compound 27 (754.45 g/mol free acid) daily in physiological saline solution (2 mL/kg) from D1 to D13 via subcutaneous route.
All the living animals of groups 1-5 were sacrificed in D13 for determining their Ca values in tissue (i.e., aorta, carotids, femoral, heart, kidney).
The animals were exsanguinated before sacrifice. Their necropsies were performed, and their whole right and left femoral arteries, left and right carotids, aorta, heart, and right kidney were collected for calcium content measurement. The tissues were lyophilized for 24 h and weighed. The lyophilized tissues were then digested using a 1:1 HNO3:HClO4 mixture in a dry bath incubator for 2-4 h at 180° C. The digested tissues were subsequently diluted using ultra-pure Milli-Q water (MilliporeSigma, Merck KGaA, Burlington, MA, US) to a final volume of 5 mL (for femoral and carotid) or 10 mL (for heart, kidney and aorta). Calcium content was quantified via inductively coupled plasma optical emission spectrometry (ICP-OES) using an Optima 7300 DV ICP-OES System spectrometer (PerkinElmer, Inc., Waltham, MA, US) according to the manufacturer's instructions.

Substance: 4,6-O-bis(5-acetamidopentyl)-myo-inositol-1,2,3,5-tetrakis(phosphate) octasodium salt [Compound 27]
- Effect on blood perfusion ([1]; 5, 15, 45 mg/kg s.c. daily, D13): dose-response effect from 5 mg/kg
- Recovery of posterior limb blood perfusion ([1]; 15 and 45 mg/kg s.c. daily): recovery of posterior limb blood perfusion at doses of 15 and 45 mg/kg
- Inhibition of ectopic calcification in all evaluated tissues ([2]; aorta, carotids, femoral, heart, kidney): inhibits ectopic calcification in all the evaluated tissues
- Inhibition of calcification in aorta ([2]; aorta, FIG. 12A): observed at 45 mg/kg
- Inhibition of calcification in the carotids ([2]; carotids, FIG. 12D): observed at 45 mg/kg
- Inhibition of calcification in the femoral arteries ([2]; femoral arteries, FIG. 12C): dose-response effect from 5 mg/kg
- Inhibition of calcification in the heart ([2]; heart, FIG. 12B): dose-response effect from 5 mg/kg
- Inhibition of calcification in the kidneys ([2]; kidney, FIG. 12E): dose-response effect from 5 mg/kg
